Nine compounds from PubChem BioAssay (NCI) can be followed below.

Experiment in all cases: DTP human tumour cell line panel, 48 h
Test [1] concerns 786-0 renal.
Test [2] deals with NCI-H522 lung.
In test [3] the test system is KM12 colon.
The subject of test [4] is RXF 393 renal.
In test [5] the test system is COLO 205 colon.
Test [6] concerns DU-145 prostate.
The test system of test [7] is SF-539 CNS.
For test [8], the system named is ACHN renal.
For test [9], the system named is OVCAR-5 ovarian.
Test [10] concerns SNB-75 CNS.

Each structure is given as a SMILES string.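 The compound was tested at five concentrations on cells cultured in 96-well plates, with a 48-hour exposure period. GI50 is the concentration that inhibits growth by half. TGI marks complete inhibition of growth.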

With `Cc1cc(N2CCCC2)nc(NC2CCCC(Nc3ccnc4cc(Cl)ccc34)C2)n1` (stereo not given), the GI50 (as a rule, the concentration giving 50% growth inhibition) was 1.45 µM in [1]; 1.58 µM in test [2]; 1.5 µM in [3]; 1.33 µM in [4]; 1.46 µM in test [5]; 1.24 µM in [6]. Also, the GI50 in test [7] is 1.26 µM; in [8], 1.27 µM; in test [9], 1.45 µM. The TGI (usually the concentration at which net growth stops) in [1] was found to be 2.87 µM; in test [2] it was 3.21 µM; in test [3] it was 3.89 µM; in [4] it was 2.71 µM; in test [5], 3.35 µM; in test [6], 2.77 µM. The figures for the TGI in [7], in test [8] and in test [9] were 2.62 µM, 2.79 µM and 4.26 µM, respectively.

For `COc1ccc(-c2ccc(/C=N/n3c(COc4ccc(Cl)cc4Cl)nn(CN4CCN(C)CC4)c3=S)o2)c([N+](=O)[O-])c1`, the GI50 was 21.4 µM in test [1]; 44.5 µM in test [2]; 15.1 µM in test [3]; 6.86 µM in test [4]; 67.5 µM in test [10]; 29.3 µM in [5]. Further, the GI50 in [6] was 17.1 µM; in test [8], 21.9 µM; in test [9], 24.2 µM. For the same compound, the TGI in [1] was greater than 100 µM; in test [2], greater than 100 µM; in test [3] it was 36.5 µM; in [4], 32.9 µM; in [10], greater than 100 µM; in test [5] it was greater than 100 µM. In addition, the TGI is greater than 100 µM in test [6], 55.7 µM in [8] and 97.1 µM in test [9].

Take `Cc1cc(N2CCN(c3ccnc4cc(Cl)ccc34)CC2)nc(NC2CCCCC2)n1`: the GI50 in test [1] was 1.57 µM; in [2] it was 1.93 µM; in [3], 2.56 µM; in test [4], 1.71 µM; in test [10] it was 1.79 µM; in test [5], 1.65 µM. Besides, in test [6], the GI50 was 3.51 µM. Moreover, the TGI in test [1] is 3.05 µM; in test [2], 3.8 µM; in test [3], 6.27 µM; in test [4] it was 3.79 µM; in test [10], 3.95 µM; in [5], 3.34 µM. Further, in test [6], the TGI came out at 11.2 µM.

Consider `Cc1ccc(-c2nc(N)nc3c2nnn3Cc2cccc(CO[C@H]3CCOC3)n2)o1`, for which the GI50 was greater than 100 µM in test [1]; greater than 100 µM in test [2]; greater than 100 µM in [3]; greater than 100 µM in [4]; 41.5 µM in test [10]; greater than 100 µM in test [6]. Also, the GI50 in test [7], in test [8] and in [9] was greater than 100 µM each time. The TGI in [1], in test [2], in test [3], in [4], in test [10] and in test [6] was greater than 100 µM each time. Also, the TGI in test [7], in [8] and in [9] was greater than 100 µM in each case.

Regarding `CC[Si](CC)(CC)OC[C@]1([C@@H]2COC(C)(C)O2)CC=CC(=O)O1`, the GI50 is 38.1 µM in [1]; 35.4 µM in [2]; 34.3 µM in [3]; 48 µM in test [4]; 40.4 µM in [5]; 82.9 µM in test [6]. Also, the GI50 in [7] was 34.5 µM; in [8] it was 42.8 µM; in [9], greater than 100 µM. In addition, the TGI in test [1], in [2], in test [3], in [4], in test [5] and in [6] was greater than 100 µM in each case. Further, the TGI in [7], in [8] and in test [9] was greater than 100 µM in each case.

As to `Cc1cccc(C)c1NC(=O)CCc1nnc2s/c(=C\c3ccc(Cl)cc3)c(=O)n12`, the TGI in test [1], in test [2], in test [3], in test [4], in test [10] and in test [5] was greater than 100 µM throughout. In addition, the total growth inhibition concentration (TGI) in test [7], in test [8] and in test [9] was greater than 100 µM each time.

In the case of `CN1CCCCCC(=N\O)/C(=N/O)CCCCC1`, the TGI in test [1], in test [2], in [3], in [4], in [10] and in [6] was greater than 100 µM each time. Moreover, the TGI in test [7], in test [8] and in test [9] was greater than 100 µM each time.

With `O=C([O][Hg][CH2]C1COCC([CH2][Hg][O]C(=O)c2ccccc2)O1)c1ccccc1` (stereo not given), the GI50 was 16.8 µM in [1]; 16.6 µM in test [3]; 1.99 µM in test [4]; 15.6 µM in test [10]; 1.88 µM in [5]; 15.2 µM in [6]. The GI50 in test [7] is 23.7 µM; in [8], 1.91 µM; in test [9], 19.2 µM. Besides, the TGI was found to be 30.5 µM in test [1]; 31.5 µM in test [3]; 3.56 µM in test [4]; 29.3 µM in [10]; 3.55 µM in test [5]; 28.7 µM in [6]. Also, the TGI in test [7] was 51.8 µM; in [8] it was 3.71 µM; in test [9], 35.9 µM.

On to `C=CCN(CC=C)C(=O)c1cc(C)nc2c1c(=O)n(-c1ccccc1)c(=O)n2CC(O)CN1CCN(c2ncccn2)CC1` (stereo not given), for which the GI50 in test [1] was greater than 100 µM; in test [2], greater than 100 µM; in test [3], greater than 100 µM; in test [10] it was 29 µM; in test [5] it was greater than 100 µM; in test [6] it was greater than 100 µM. The GI50 in test [7], in test [8] and in test [9] was greater than 100 µM in each case. The TGI in [1], in [2], in [3], in [10], in [5] and in [6] was greater than 100 µM throughout. For the same compound, the TGI in test [7], in [8] and in [9] was greater than 100 µM in each case.
